In patent publication US9676757B2, “Heterocyclic compounds as NaV channel inhibitors and uses thereof” (Merck Patent GmbH, priority 2014, dated 2017):
Structures can show the parent of a compound that is named as a salt. Where two headings read alike, the source gives them in different places.

What was measured:
[1] = target: Nav1.6 (Homo sapiens, UniProt Q9UQD0); assay: Nav two-pulse protocol, IonWorks Quattro electrophysiology; type: cell-based; conditions: -120 mV to 0 mV, compound incubated 300 s
Procedure, shortened: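 Two-pulse protocol on IonWorks Quattro with amphotericin B (200 μg/ml) perforated patch: holding −120 mV, 2.5 s step to 0 mV, 5 ms gap, 20 ms step to 0 mV. Compounds (0.3% DMSO final) incubated 300 s; block taken as Post/Pre peak inward current for each pulse.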

[2] = secondary progressive MS patients; over 2 years; p=0.02; cited from earlier work

Sequence of Nav1.6 (Q9UQD0 whole entry): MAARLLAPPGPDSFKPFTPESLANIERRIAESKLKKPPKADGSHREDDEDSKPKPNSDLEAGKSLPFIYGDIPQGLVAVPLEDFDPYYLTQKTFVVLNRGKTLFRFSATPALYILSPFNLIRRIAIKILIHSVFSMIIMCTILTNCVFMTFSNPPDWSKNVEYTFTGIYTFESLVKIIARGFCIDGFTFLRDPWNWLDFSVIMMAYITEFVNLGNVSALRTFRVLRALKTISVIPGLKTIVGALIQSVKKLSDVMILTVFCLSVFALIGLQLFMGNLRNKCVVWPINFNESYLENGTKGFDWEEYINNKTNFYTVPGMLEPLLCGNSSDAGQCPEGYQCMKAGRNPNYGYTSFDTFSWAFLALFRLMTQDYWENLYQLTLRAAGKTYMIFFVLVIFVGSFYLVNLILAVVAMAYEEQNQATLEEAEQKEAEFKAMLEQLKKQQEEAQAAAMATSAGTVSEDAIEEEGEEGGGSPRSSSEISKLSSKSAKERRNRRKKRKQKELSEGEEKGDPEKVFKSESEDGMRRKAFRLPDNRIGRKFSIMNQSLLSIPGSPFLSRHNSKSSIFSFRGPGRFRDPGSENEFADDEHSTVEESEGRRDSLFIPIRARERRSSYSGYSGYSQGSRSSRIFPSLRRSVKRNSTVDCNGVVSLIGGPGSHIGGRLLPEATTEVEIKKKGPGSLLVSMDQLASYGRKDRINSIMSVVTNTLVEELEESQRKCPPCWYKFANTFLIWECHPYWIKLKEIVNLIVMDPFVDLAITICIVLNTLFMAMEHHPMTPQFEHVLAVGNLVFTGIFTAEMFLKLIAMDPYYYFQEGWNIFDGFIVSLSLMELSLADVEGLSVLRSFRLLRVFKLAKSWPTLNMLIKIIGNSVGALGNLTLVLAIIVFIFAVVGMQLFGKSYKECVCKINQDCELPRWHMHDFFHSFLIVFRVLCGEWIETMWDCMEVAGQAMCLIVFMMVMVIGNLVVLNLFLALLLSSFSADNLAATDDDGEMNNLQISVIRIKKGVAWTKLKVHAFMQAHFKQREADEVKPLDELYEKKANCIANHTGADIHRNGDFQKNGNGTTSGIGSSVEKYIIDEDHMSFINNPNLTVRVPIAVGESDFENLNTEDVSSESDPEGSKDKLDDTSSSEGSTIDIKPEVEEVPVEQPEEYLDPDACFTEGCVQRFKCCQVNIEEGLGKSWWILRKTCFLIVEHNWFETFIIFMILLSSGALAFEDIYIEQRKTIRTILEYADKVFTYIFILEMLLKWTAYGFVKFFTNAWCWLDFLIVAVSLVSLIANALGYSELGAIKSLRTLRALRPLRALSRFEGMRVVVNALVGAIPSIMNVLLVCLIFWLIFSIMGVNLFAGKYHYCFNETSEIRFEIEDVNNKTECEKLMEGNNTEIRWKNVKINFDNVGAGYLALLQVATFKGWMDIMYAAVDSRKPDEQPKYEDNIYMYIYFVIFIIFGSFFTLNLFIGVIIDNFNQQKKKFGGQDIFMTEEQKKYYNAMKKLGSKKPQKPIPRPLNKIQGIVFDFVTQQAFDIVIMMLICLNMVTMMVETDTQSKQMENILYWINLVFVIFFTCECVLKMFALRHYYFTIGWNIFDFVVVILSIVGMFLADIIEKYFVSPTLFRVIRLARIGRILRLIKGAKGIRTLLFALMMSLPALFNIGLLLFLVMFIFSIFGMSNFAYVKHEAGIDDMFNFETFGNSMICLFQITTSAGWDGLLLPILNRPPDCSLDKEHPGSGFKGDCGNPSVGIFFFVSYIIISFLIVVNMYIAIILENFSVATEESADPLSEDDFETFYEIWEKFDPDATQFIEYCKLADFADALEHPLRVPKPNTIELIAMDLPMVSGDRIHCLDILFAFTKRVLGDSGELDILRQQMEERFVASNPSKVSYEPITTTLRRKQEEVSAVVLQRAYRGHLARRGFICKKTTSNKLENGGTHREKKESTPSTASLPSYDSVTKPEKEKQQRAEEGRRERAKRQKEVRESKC

Row | SMILES | IC50 ([1]; read-out: Nav1.6 Tonic) [µM] | IC50 ([1]; read-out: Nav1.6 inac) [µM] | deterioration of the timed 25-foot walk [2]
1 | Cn1ccnc1CNC(=O)C1(C)CCN(Cc2cccc(Oc3ccccc3)c2)C1 (centres unmarked) [Compound 101, 3-Methyl-1-(3-phenoxy-benzyl)-pyrrolidine-3-carboxylic acid (1-methyl-1H-imidazol-2-ylmethyl)-amide] | > 20 | 1 to 5 | 
2 | CC1(C(=O)NCc2ccccn2)CCN(Cc2cnc(-c3ccccc3)s2)C1 (centres unmarked) [Compound 102, 3-Methyl-1-(2-phenyl-thiazol-5-ylmethyl)-pyrrolidine-3-carboxylic acid (pyridin-2-ylmethyl)-amide] | > 20 | 1 to 5 | 
3 | CCC(NC(=O)C1(C)CCN(Cc2cccc(Oc3ccccc3)c2)C1)c1cccnc1 (centres unmarked) [Compound 103, 3-Methyl-1-(3-phenoxy-benzyl)-pyrrolidine-3-carboxylic acid (1-pyridin-3-yl-propyl)-amide] | > 20 | > 5 | 
4 | CN1CCN(C(=O)C2CCN(Cc3cccc(Oc4ccccc4)c3)C2)CC1=O (centres unmarked) [Compound 104, 1-Methyl-4-[1-(3-phenoxy-benzyl)-pyrrolidine-3-carbonyl]-piperazin-2-one] | > 20 | 1 to 5 | 
5 | O=C(NCc1ccccn1)C1CN(Cc2cccc(Oc3ccccc3)c2)CCO1 (centres unmarked) [Compound 105, 4-(3-Phenoxy-benzyl)-morpholine-2-carboxylic acid (pyridin-2-ylmethyl)-amide] | > 20 | 1 to 5 | 
6 | O=C(C1CN(Cc2cccc(Oc3ccccc3)c2)CCO1)N1CCOCC1 (centres unmarked) [Compound 106, Morpholin-4-yl-[4-(3-phenoxy-benzyl)-morpholin-2-yl]-methanone] | > 20 | > 5 | 
7 | COCCNC(=O)C1CN(Cc2cccc(Oc3ccccc3)c2)CCO1 (centres unmarked) [Compound 107, 4-(3-Phenoxy-benzyl)-morpholine-2-carboxylic acid (2-methoxy-ethyl)-amide] | > 20 | 1 to 5 | 
8 | Nc1nnc(-c2cccc(Cl)c2Cl)c(N)n1 [Lamotrigine] |  |  | reduced the deterioration of the timed 25-foot walk

Second part, led by results:

Row | IC50 ([1]; read-out: Nav1.6 Tonic) [µM] | IC50 ([1]; read-out: Nav1.6 inac) [µM] | SMILES | deterioration of the timed 25-foot walk [2]
9 | > 20 | 1 to 5 | CC1(C(=O)N2Cc3ccncc3C2)CCN(Cc2cccc(Oc3ccccc3)c2)C1 (centres unmarked) [Compound 108, (1,3-Dihydro-pyrrolo[3,4-c]pyridin-2-yl)-[3-methyl-1-(3-phenoxy-benzyl)-pyrrolidin-3-yl]-methanone] | 
10 | 10 to 20 | < 1 | O=C(NCc1ccccn1)C1CCN(Cc2cccc(OC(F)(F)F)c2)C1 (centres unmarked) [Compound 109, 1-(3-Trifluoromethoxy-benzyl)-pyrrolidine-3-carboxylic acid (pyridin-2-ylmethyl)-amide hydrochloride] | 
11 | 10 to 20 | < 1 | CC1(C(=O)NCc2ccccn2)CCCN(Cc2cccc(Oc3ccccc3)c2)C1=O (centres unmarked) [Compound 110, 3-Methyl-2-oxo-1-(3-phenoxy-benzyl)-piperidine-3-carboxylic acid (pyridin-2-ylmethyl)-amide] | 
12 | > 20 | 1 to 5 | Cc1cc(C)nc(CNC(=O)C2CCN(Cc3cccc(S(=O)(=O)N4CCCC4)c3)C2)c1 (centres unmarked) [Compound 111, 1-[3-(Pyrrolidine-1-sulfonyl)-benzyl]-pyrrolidine-3-carboxylic acid (4,6-dimethyl-pyridin-2-ylmethyl)-amide hydrochloride] | 
